Measured values reported in patent US8895585B2, “Nicotinamide derivative or salt thereof” (FUJIFILM Corporation, priority 2010, dated 2014).
Where “and” joins values, the source holds several entries; their conditions need not be identical. Identical values can stand only once.

Key:
THP-1 cells = assay: TNFα generation assay; format: cell-based, human; details: Homo sapiens, THP-1, THP-1 cells; Table 22; read-out: IC50 in TNFα generation assay
Method in brief: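 Secreted TNFα in supernatant quantified by ELISA or AlphaLISA after 7 h culture on human IgG-coated wells (10 μg/ml coating). Cells were IFN-γ-differentiated THP-1 (10 ng/ml, 2 days), exposed to compound for 30 min at room temperature before plating.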

[1] = biological target: T1, glutathione S-transferase (GST)-fused full-length human Syk protein (Homo sapiens, UniProt P43405); assay: Syk enzyme assay; format: biochemical; details: Syk enzyme assay, Test Example 1; read-out: IC50 of Syk-inhibitory activity
T1 construct: (GST)-fused full-length human Syk protein; GST (glutathione S-transferase); purchased Carna Biosciences
Method in brief: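 IC50 values come from a time-resolved FRET readout (615 and 665 nm) of substrate phosphorylation, measured after an EDTA stop and 1 h antibody binding. The kinase reaction ran 40 min at room temperature with 27 μM ATP and 0.4 μM biotin-peptide, following a 15 min compound preincubation with baculovirus-made GST-full-length human Syk.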

SMILES | IC50 (THP-1 cells) [nM] | IC50 [1]
COCCn1ccc2c(Nc3nc(N[C@@H]4CCCC[C@@H]4N)c(F)cc3C(N)=O)ccnc21 [Example 004-035] | 130 to 200 | < 10 nM
NC(=O)c1cc(F)c(N[C@@H]2CCCC[C@@H]2N)nc1Nc1cncc(-c2ccsc2)c1 (relative stereo) [Example 004-077, 6-(cis-2-aminocyclohexylamino)-5-fluoro-2-((5-(thiophene-3-yl)pyridin-3-yl)amino)-nicotinamide] | 65 to 130 | < 10 nM
NC(=O)c1cc(F)c(NC2CCCCC2N)nc1Nc1cncc(-c2ccc3ccncc3c2)c1 (stereo not drawn) [Example 002-191] | 65 to 130 | < 10 nM
Cc1cc(C)cc(Nc2nc(NCCN)c(Br)cc2C(N)=O)c1 [Example 035-009] | 130 to 200 | < 10 nM and 10 to 50 nM
COc1nccc(Nc2nc(N[C@@H]3CCCC[C@@H]3N)c(F)cc2C(N)=O)c1F [Example 006-432, 6-(((1R,2S)-2-aminocyclohexyl)amino)-5-fluoro-2-((3-fluoro-2-methoxypyridin-4-yl)amino)nicotinamide] | 65 to 130 | 10 to 50 nM
CCC[C@@H](Nc1nc(Nc2cncc3ccccc23)c(C(N)=O)cc1F)[C@H](C)N [Example 006-241, 6-(((2S,3R)-2-aminohexan-3-yl)amino)-5-fluoro-2-((isoquinolin-4-yl)amino)nicotinamide] | 65 to 130 | < 10 nM
CC(C)C[C@H](CN)Nc1nc(Nc2ccnc(-c3ccoc3)c2)c(C(N)=O)cc1F [Example 006-155, (R)-6-((1-amino-4-methylpentan-2-yl)amino)-5-fluoro-2-((2-(furan-3-yl)pyridin-4-yl)amino)nicotinamide] | 65 to 130 | < 10 nM
COc1ccc(-c2cncc(Nc3nc(N[C@@H]4CCCC[C@@H]4N)c(F)cc3C(N)=O)c2)c(F)c1 (relative stereo) [Example 004-198, 6-(cis-2-aminocyclohexylamino)-5-fluoro-2-((5-(2-fluoro-4-methoxyphenyl)pyridin-3-yl)amino)nicotinamide] | 65 to 130 | < 10 nM
CC[C@@H](Nc1nc(Nc2ccc3ncccc3c2)c(C(N)=O)cc1F)C(N)=O [Example 012-031] | 65 to 130 | 10 to 50 nM
CCc1nn(CC)c2ccc(Nc3nc(N[C@@H]4CCCC[C@@H]4N)c(F)cc3C(N)=O)cc12 [Example 006-452, 6-(((1R,2S)-2-aminocyclohexyl)amino)-2-((1,3-diethyl-1H-indazol-5-yl)amino)-5-fluoronicotinamide] | < 65 | < 10 nM
CCC[C@@H](Nc1nc(Nc2ccc3ncccc3c2)c(C(N)=O)cc1F)[C@@H](N)CC [Example 006-200, 6-(((3S,4R)-3-aminoheptan-4-yl)amino)-5-fluoro-2-((quinolin-6-yl)amino)nicotinamide] | 65 to 130 | < 10 nM
CCC[C@@H](Nc1nc(Nc2ccc3c(cnn3CCOC)c2)c(C(N)=O)cc1F)[C@H](C)N [Example 006-314, 6-(((2S,3R)-2-aminohexan-3-yl)amino)-5-fluoro-2-((1-(2-methoxyethyl)-1H-indazol-5-yl)amino)nicotinamide] | < 65 | < 10 nM
COc1cc(Nc2nc(NC[C@H](C)N)c(F)cc2C(N)=O)cc(OC)c1 [Example 006-093, (S)-6-((2-aminopropyl)amino)-2-(3,5-dimethoxyphenylamino)-5-fluoronicotinamide] | < 65 | < 10 nM
COCCn1nc(C)c2cc(Nc3nc(NC4CCCCC4N)c(F)cc3C(N)=O)ccc21 (stereo not drawn) [Example 002-208] | 65 to 130 | < 10 nM
Cc1cc(Nc2nc(N[C@H](CCCO)[C@H](C)N)c(F)cc2C(N)=O)cnc1C [Example 044-000] | 65 to 130 | 10 to 50 nM
COc1cc(Nc2nc(NC3CCCCC3N)c(F)cc2C(N)=O)cc(OC)c1OC (stereo not drawn) [Example 002-007] | 65 to 130 | 10 to 50 nM
CCC[C@@H](Nc1nc(Nc2cncc(C3CC3)c2)c(C(N)=O)cc1F)[C@H](C)N [Example 006-223, 6-(((2S,3R)-2-aminohexan-3-yl)amino)-2-((5-cyclopropylpyridin-3-yl)amino)-5-fluoronicotinamide] | < 65 | < 10 nM
CC(C)C[C@H](CN)Nc1nc(Nc2cncc(C3CC3)c2)c(C(N)=O)cc1F [Example 006-144, (R)-6-((1-amino-4-methylpentan-2-yl)amino)-2-((5-cyclopropylpyridin-3-yl)amino)-5-fluoronicotinamide] | 65 to 130 | < 10 nM

SMILES | IC50 (THP-1 cells) [nM] | IC50 [1]
C[C@H](N)[C@@H](CC1CC1)Nc1nc(Nc2ccnc(-n3cncn3)c2)c(C(N)=O)cc1F [Example 006-353, 2-((2-(1H-1,2,4-triazol-1-yl)pyridin-4-yl)amino)-6-(((2R,3S)-3-amino-1-cyclopropylbutan-2-yl)amino)-5-fluoronicotinamide] | < 65 | < 10 nM
Cn1c(=O)ccc2cc(Nc3nc(NC4CCCCC4N)c(F)cc3C(N)=O)cnc21 (stereo not drawn) [Example 002-115] | 130 to 200 | 10 to 50 nM
C[C@H](N)[C@@H](CC1CC1)Nc1nc(Nc2ccc3cnn(C4CC4)c3c2)c(C(N)=O)cc1F [Example 006-480, 6-(((2R,3S)-3-amino-1-cyclopropylbutan-2-yl)amino)-2-((1-cyclopropyl-1H-indazol-6-yl)amino)-5-fluoronicotinamide] | 130 to 200 | < 10 nM
NC(=O)c1cc(F)c(N[C@@H]2CCCC[C@@H]2N)nc1Nc1ccc2nc(OCCN3CCOC3=O)ccc2c1 (relative stereo) [Example 004-201, 6-(cis-2-aminocyclohexylamino)-5-fluoro-2-((2-(2-(2-oxooxazolidin-3-yl)ethoxy)quinolin-6-yl)amino)nicotinamide] | 130 to 200 | < 10 nM
CCC[C@@H](Nc1nc(Nc2ccnc(-n3ccnn3)c2)c(C(N)=O)cc1F)[C@H](C)N [Example 006-299, 2-((2-(1H-1,2,3-triazol-1-yl)pyridin-4-yl)amino)-6-(((2S,3R)-2-aminohexan-3-yl)amino)-5-fluoronicotinamide] | < 65 | < 10 nM
NC(=O)c1cc(F)c(N[C@@H]2CCCC[C@@H]2N)nc1Nc1ccnc2c1ccn2C1CC1 [Example 004-037] | 65 to 130 | < 10 nM
C[C@H](N)[C@H](Nc1nc(Nc2cncc(F)c2)c(C(N)=O)cc1F)C1CC1 [Example 006-372, 6-(((1R,2S)-2-amino-1-cyclopropylpropyl)amino)-5-fluoro-2-((5-fluoropyridin-3-yl)amino)nicotinamide] | 65 to 130 | 10 to 50 nM
C[C@H](N)[C@@H](C)Nc1nc(Nc2cncc(C3CC3)c2)c(C(N)=O)cc1F (racemic) [Example 006-193, 6-(((2R,3S)-3-aminobutan-2-yl)amino)-2-((5-cyclopropylpyridin-3-yl)amino)-5-fluoronicotinamide 6-(((2S,3R)-3-aminobutan-2-yl)amino)-2-((5-cyclopropylpyridin-3-yl)amino)-5-fluoronicotinamide] | < 65 | < 10 nM
NC(=O)c1cc(F)c(N[C@@H]2CCCC[C@@H]2N)nc1Nc1cc([N+](=O)[O-])c2[nH]ccc2c1 (relative stereo) [Example 004-089, 6-(cis-2-aminocyclohexylamino)-5-fluoro-2-((7-nitro-1H-indol-5-yl)amino)nicotinamide] | 65 to 130 | < 10 nM
NC(=O)c1cc(F)c(N[C@@H]2CCCC[C@@H]2N)nc1Nc1ccc(N2CCOC2=O)nc1 [Example 006-537, 6-(((1R,2S)-2-aminocyclohexyl)amino)-5-fluoro-2-((6-(2-oxooxazolidin-3-yl)pyridin-3-yl)amino)nicotinamide] | 65 to 130 | 10 to 50 nM
NC(=O)c1cc(F)c(N[C@@H]2CCCC[C@@H]2N)nc1Nc1cncc(-c2ccccn2)c1 [Example 004-106] | 130 to 200 | < 10 nM
CN(C)CCCn1ccc2c(Nc3nc(N[C@@H]4CCCC[C@@H]4N)c(F)cc3C(N)=O)ccnc21 [Example 004-030] | 130 to 200 | < 10 nM
NC(=O)c1cc(F)c(NC2CCCCC2N)nc1Nc1cncc(NC(=O)c2cccc(F)c2F)c1 (stereo not drawn) [Example 027-030] | 130 to 200 | 10 to 50 nM
NC(=O)c1cc(F)c(N[C@@H]2CCCC[C@@H]2N)nc1Nc1cccc(-n2ccnn2)c1 (relative stereo) [Example 006-122, 2-(3-(1H-1,2,3-triazol-1-yl)phenylamino)-6-((cis-2-aminocyclohexyl)amino)-5-fluoronicotinamide] | 65 to 130 | < 10 nM
COc1cc(Nc2nc(NC[C@H](C)N)c(F)cc2C(N)=O)ccn1 [Example 006-096, (S)-6-((2-aminopropyl)amino)-5-fluoro-2-((2-methoxypyridin-4-yl)amino)nicotinamide] | < 65 | 10 to 50 nM
NC(=O)c1cc(F)c(N[C@@H]2CCCC[C@@H]2N)nc1Nc1cnc2c(NCC3CC3)cccc2c1 [Example 004-134] | 130 to 200 | 10 to 50 nM
CCC[C@@H](Nc1nc(Nc2cnc(C)c(C3CC3)c2)c(C(N)=O)cc1F)[C@H](C)N [Example 006-250, 6-(((2S,3R)-2-aminohexan-3-yl)amino)-2-((5-cyclopropyl-6-methylpyridin-3-yl)amino)-5-fluoronicotinamide] | 130 to 200 | < 10 nM
CCC[C@@H](Nc1nc(Nc2ccnc(-c3cccc(OC)c3)c2)c(C(N)=O)cc1F)[C@H](C)N [Example 006-334, 6-(((2S,3R)-2-aminohexan-3-yl)amino)-5-fluoro-2-((2-(3-methoxyphenyl)pyridin-4-yl)amino)nicotinamide] | 65 to 130 | < 10 nM
